Results as given in patent publication US10220083B2 (priority 2014, dated 2019).

Key:
[1] = test system: human pneumococcal reference serum 007sp (pooled sera of humans immunized with Pneumovax); assay type: binding
mAb 1H8 [2] = test: Surface plasmon resonance with captured mAb 1H8; assay type: binding, mouse; settings: saccharide 18 at 20 μM, polysaccharides at 10 μg/mL in PBS
Experimental: Surface Plasmon Resonance was performed on a Biacore T100 instrument (GE Healthcare). Analysis was performed using the Mouse Antibody Capture Kit and Amine Coupling Kit (GE Healthcare) for immobilization. About 10000 response units (RU) of capture antibody were immobilized. A commercial mouse IgG (cat. no. 026502, Invitrogen, Carlsbad, US) was immobilized as a dummy in a reference cell (about 10000 RU). About 800 RU of mAb 1H8 were captured prior to every run using a mAb concentration of 50 μg/mL. Runs were performed using PBS as a running buffer and a flow rate of 30 μL/min with 60 s association and 120 s dissociation periods, respectively. Polysaccharides were used at a concentration of 10 μg/mL and saccharide 18 at 20 μM in PBS.

mAb 1H8 [3] = assay type: binding, mouse
mAb 1F1 = assay type: binding, mouse

SMILES	interaction with the antiserum from human vaccinated with Pneumovax23 [1]	recognition by antiserum from human vaccinated with Pneumovax23 (007sp) [1]	recognition by mAb 1H8 (surface plasmon resonance) (mAb 1H8 [2])	binding of mAb 1H8 after inhibition with native SP8 polysaccharide (mAb 1H8 [3])	recognition by mAb 1H8 (mAb 1H8 [3])	binding of mAb 1F1 after inhibition with native SP8 polysaccharide (mAb 1F1)	recognition by mAb 1F1 (mAb 1F1)
NCCO[C@H]1OC(CO)[C@H](O[C@H]2OC(CO)[C@@H](O[C@@H]3OC(CO)[C@@H](O[C@@H]4OC(C(=O)O)[C@@H](O)[C@H](O)C4O)[C@H](O)C3O)[C@H](O)C2O)[C@H](O)C1O (stereo partly drawn) [saccharide 18, β-D-Glucopyranosyluronic acid-(1→4)β-D-glucoyranosyl-(1→4)-α-D-glucopyranosyl-(1→4)-α-D-galactopyranosyl-(1→1)-(2-amino)ethanol]	Robust interactions	recognized	specifically recognizes	–	–	–	–
NCCO[C@H]1OC(CO)[C@H](O[C@H]2OC(CO)[C@@H](O[C@@H]3OC(CO)[C@@H](O[C@@H]4OC(C(=O)O)[C@@H](O[C@H]5OC(CO)[C@H](O)[C@H](O)C5O)[C@H](O)C4O)[C@H](O)C3O)[C@H](O)C2O)[C@H](O)C1O (stereo partly drawn) [saccharide 55, α-D-galactopyranosyl-(1→4)-β-D-glucopyranosyluronate-(1→4)-β-D-glucoyranosyl-α-D-glucopyranosyl-(1→4)-α-D-galactopyranosyl-(1→1)-(2-amino)ethanol]	–	–	–	abrogated	recognized with similar intensities	abrogated	recognized with similar intensities
NCCO[C@H]1OC(CO)[C@H](O[C@H]2OC(CO)[C@@H](O[C@@H]3OC(CO)[C@@H](O[C@@H]4OC(C(=O)O)[C@@H](O[C@H]5OC(CO)[C@H](O[C@H]6OC(CO)[C@@H](O)[C@H](O)C6O)[C@H](O)C5O)[C@H](O)C4O)[C@H](O)C3O)[C@H](O)C2O)[C@H](O)C1O (stereo partly drawn) [saccharide 57, α-D-glucopyranosyl-(1→4)-α-D-galactopyranosyl-(1→4)-β-D-glucopyranosyluronate-(1→4)-β-D-glucoyranosyl-(1→4)-α-D-glucopyranosyl-(1→4)-α-D-galactopyranosyl-(1→1)-(2-amino)ethanol]	–	–	–	abrogated	recognized with similar intensities	abrogated	recognized with similar intensities
NCCO[C@H]1OC(CO)[C@H](O[C@H]2OC(CO)[C@@H](O[C@@H]3OC(CO)[C@@H](O[C@@H]4OC(CO)[C@@H](O)[C@H](O)C4O)[C@H](O)C3O)[C@H](O)C2O)[C@H](O)C1O (stereo partly drawn) [saccharide 60, β-D-Glucopyranosyl-(1→4)β-D-glucoyranosyl-(1→4)-α-D-glucopyranosyl-(1→4)-α-D-galactopyranosyl-(1→1)-(2-amino)ethanol]	–	–	–	–	recognized with similar intensities	–	recognized with similar intensities
NCCO[C@H]1OC(CO)[C@H](O[C@H]2OC(CO)[C@@H](O[C@@H]3OC(CO)[C@@H](O)[C@H](O)C3O)[C@H](O)C2O)[C@H](O)C1O (stereo partly drawn) [saccharide 62, β-D-Glucoyranosyl-(1→4)-α-D-glucopyranosyl-(1→4)-α-D-galactopyranosyl-(1→1)-(2-amino)ethanol]	–	–	–	–	recognized with similar intensities	–	recognized with similar intensities
